The values that follow come from patent publication US20220235343A1, “NOVEL ADP-RIBOSYL CYCLASE AND INHIBITOR THEREOF” (INDUSTRIAL COOPERATION FOUNDATION CHONBUK NATIONAL …, priority 2019, published 2022).

The test system of assay [1] is ADPRC activity and cADPR concentration in kidney tissue. Kind of assay: ADPRC activity and cADPR concentration in kidney tissue of renal disease mouse model. It is filed as in vivo. The settings on record: STZ mice, DCQA i.p. every day for 6 weeks. How it is done:
The ADPRC activity and cADPR concentration in the kidney tissue of a renal disease mouse model were measured by the method reported by Kim S Y et al. [Kim S Y, Park K H, Gul R, Jang K Y, Kim U H. Am. J. Physiol. Renal Physiol. 296: F291-F297, 2009]
Specifically, 0.2 mL of 50 mM citrate buffer (pH 4.8) (control group and DCQA group) or 200 μL of 5 mg/mL streptozotocin (STZ, Sigma-Aldrich (USA)) dissolved in 50 mM citrate buffer (STZ group and STZ+DCQA group) was intraperitoneally injected to C57BL/6J mice. Blood glucose was measured from day 2 after the STZ injection and the mice whose blood glucose level was 300 mg/dL were divided into an STZ group and an STZ+DCQA group. […] In order to investigate the possibility as a therapeutic agent for a renal disease, the mouse was sacrificed and serum and kidney were taken.
After lysing some of the kidney tissue with a lysis buffer, 45 μL of the lysed sample was treated with 5 μL of 2 mM NGD (nicotinamide guanine dinucleotide) and reacted at 37° C. for 1 hour. Then, the enzyme-substrate reaction was stopped by treating with 50 μL of 10% trichloroacetic acid. After centrifuging for 10 minutes and adding 80 μL of the supernatant to 720 μL of a 0.1 M sodium phosphate buffer, absorbance was measured at 297 nm (excitation) and 410 nm (emission) with a fluorescence spectrometer (Hitachi, Japan). […]

The target in assay [2] is T1, new ADP-ribosyl cyclase (ADPRC) of SEQ ID NO 1 (Mus musculus, UniProt P14094).
T1 construct: FLAG (N); made in house; host or cells: HEK293 cells or MES13 cells (transient transfection)
The experiment in a line: Inhibition of NAD glycohydrolase (NADase) activity of new ADPRC. It is filed as biochemical. To be noted: as compared to the control group; ε-NAD substrate, 37° C. 1 hour; inhibitor concentration not given; FIG. 5. How it is done:
In order to investigate the ADP-ribosyl cyclase (ADPRC) activity of SEQ ID NO 1, a FLAG-ADPRC plasmid was prepared by ligating a cDNA sequence encoding ADPRC into a FLAG-CMV-2 vector and the overexpression of new ADPRC was induced by treating HEK293 cells or MES13 cells using a transfection reagent. The overexpressed new ADPRC was lysed with a lysis buffer. 45 μL of the lysed sample was treated with 5 μL of 2 mM ε-NAD (nicotinamide 1,N6-ethenoadenine dinucleotide) and incubated at 37° C. for 1 hour. Then, the enzyme-substrate reaction was stopped by treating with 50 μL of 10% trichloroacetic acid. After centrifuging for 10 minutes and adding 80 μL of the supernatant to 720 μL of 0.1 M sodium phosphate buffer, absorbance was measured at 297 nm (excitation) and 410 nm (emission) with a fluorescence spectrometer.
In order to find an inhibitor which inhibits the activation of new ADP-ribosyl cyclase (ADPRC) of SEQ ID NO 1, 5 μL of each of 4,4′-dihydroxyazobenzene (4-DHAB, TCI (Japan)), 2,2′-dihydroxyazobenzene (2-DAB, Sigma-Aldrich (USA)), 2-(3,4-dihydroxyphenyl)-3,5,7-trihydroxychromen-4-one (Quercetin, Sigma-Aldrich (USA)) and San4825 (synthesized by Kannt A et al. [Kannt A, Sicka K, Kroll K, Kadereit D, Gogelein H. Naunyn. Schmiedebergs. Arch. Pharmacol. 385: 717-727, 2012], China) and 2-(1,3-benzoxazol-2-ylamino)-1-methylquinazoline-4(1H)-one (2-BMQ) and 1,4-dicaffeoylquinic acid (1,4-DCQA, Biopurify (China), hereinafter DCQA), which were newly found through screening, was reacted with 40 μL of new ADPRC in iced water for 15 minutes. Then, reaction was conducted at 37° C. for 1 hour after treating with 5 μL of 2 mM ε-NAD (nicotinamide 1,N6-ethenoadenine dinucleotide). Then, the enzyme-substrate reaction was stopped by treating with 50 μL of 10% trichloroacetic acid. After centrifuging for 10 minutes and adding 80 μL of the supernatant to 720 μL of 0.1 M sodium phosphate buffer, absorbance was measured at 297 nm (excitation) and 410 nm (emission) using a fluorescence spectrometer.

In assay [3] the test system is TGF-β1, fibronectin and collagen IV in kidney tissue. The experiment in a line: Expression of TGF-β1, fibronectin and collagen IV in kidney tissue of renal disease mouse model (immunofluorescence). It is filed as in vivo. To be noted: STZ mice, DCQA i.p. every day for 6 weeks, FIG. 8. How it is done: The change in the expression of TGF-β1, fibronectin and collagen IV in the kidney tissue of a renal disease mouse model was measured by the method reported by Kim S Y et al. [Kim S Y, Park K H, Gul R, Jang K Y, Kim U H. Am. J. Physiol. Renal Physiol. 296: F291-F297, 2009].
Specifically, 0.2 mL of 50 mM citrate buffer (pH 4.8) (control group and DCQA group) or 200 μL of 5 mg/mL streptozotocin (STZ, Sigma-Aldrich (USA)) dissolved in 50 mM citrate buffer (STZ group and STZ+DCQA group) was intraperitoneally injected to C57BL/6J mice. Blood glucose was measured from day 2 after the STZ injection and the mice whose blood glucose level was 300 mg/dL were divided into an STZ group and an STZ+DCQA group. […] In order to investigate the possibility as a therapeutic agent for a renal disease, the mouse was sacrificed and serum and kidney were taken. Some of the extracted kidney was fixed in 10% formalin. The kidney tissue fixed in 10% formalin was cut into kidney tissue sections on a slide glass using a cryostat microtome. The kidney tissue sections were washed with a TTBS (Tris-buffered saline (TBS) with 0.1% Tween 20) buffer and then incubated with a TTBS buffer containing 1% bovine serum albumin (BSA) for 1 hour. The tissues were reacted with primary antibodies (TGF-β1 (Santa Cruz, USA), fibronectin (Santa Cruz, USA) and collagen IV (Abcam, UK)) diluted in a TTBS buffer containing 1% bovine serum albumin (BSA) to 1:200 at 4° C. for 12 hours or longer. After washing the tissues that reacted with the primary antibodies 3 times with a TTBS buffer, they were reacted with FITC-labeled secondary antibodies diluted in a TTBS buffer to 1:200 in the dark at room temperature for 1 hour. Then, after washing 3 times with a TTBS buffer, a cover glass was attached using a mounting solution. The stained kidney tissue was observed using a fluorescence microscope (Carl Zeiss, Germany) for observing green fluorescence.

As for `O=C(/C=C/c1ccc(O)c(O)c1)OC1[C@H](O)CC(OC(=O)/C=C/c2ccc(O)c(O)c2)(C(=O)O)C[C@H]1O` (stereo partly drawn) [DCQA, 1,4-dicaffeoylquinic acid], in assay [1] (FIG. 7B), the “cADPR concentration in kidney tissue” value was “decreased the cADPR concentration increased by STZ to the level of the control group”. Moreover, the “ADP-ribosyl cyclase activity in kidney tissue” value in assay [1] (NGD substrate, FIG. 7A) is “decreased the ADP-ribosyl cyclase activity increased by STZ to the level of the control group”. The “NAD glycohydrolase (NADase) activity inhibited” value in assay [2] was determined as 79.64%. Besides, in assay [3], the “expression level of TGF-β1 increased by STZ, decreased by DCQA” value was “to the level of the control group”; the “expression level of collagen IV increased by STZ, decreased by DCQA” value is recorded as “to the level of the control group”; the “expression level of fibronectin increased by STZ, decreased by DCQA” value is on record as “to the level of the control group”.
